The source of these data is patent publication US20200147169A1, “COMPOSITION COMPRISING A HIGH CONCENTRATION OF ITURIN LIPOPEPTIDES” (LIPOFABRIK, priority 2017, published 2020).

The nature of this data set: Solubility of iturinic lipopeptide (mycosubtilin) alone or in compositions with surfactants; supernatant after centrifugation analysed by RP-HPLC. The data set is classed as physicochemical. The procedure: An iturinic lipopeptide (here mycosubtilin), having a purity (on dry matter) of between 45% and 80%, was solubilized alone in water at different concentrations and this control composition was compared to different compositions to which different surfactant compounds were added as described in the application. After 15 days of storage at 21° C., only compositions with a rheological behaviour of the fluid type and a homogeneous appearance (without flow preventing caking and/or phase shift and/or precipitation) are selected, mixed by stirring, then these compositions are centrifuged for 10 minutes at 10,000 g and the supernatant is analysed using the RP-HPLC reference method. This method makes it possible to check the solubility of the iturinic compounds that are then found in the supernatant after centrifugation.
The solubility of iturinic lipopeptide (here mycosubtilin) alone in an aqueous solution as a function of its concentration is shown in FIG. 1. No surfactant is added to composition 1 which contains only iturinic lipopeptides.
The measurement is made on the supernatant after a centrifugation step to eliminate insoluble substances.

As to mycosubtilin, the solubility of mycosubtilin result is “above 30 g/L” (alkylthoxyglycoside (AEG 0.4%, composition 8 of FIG. 2), 15 days at room temperature); “above 30 g/L” (penthylene glycol (50%, composition 7 of FIG. 2), 15 days at room temperature); approximately 30 mg/mL (presence of fengycin (10%, composition 2 of FIG. 2), 15 days at room temperature, supernatant after centrifugation); approximately 30 mg/mL (presence of surfactin (4%, composition 9 of FIG. 2), 15 days at room temperature, supernatant after centrifugation). Further, the iturinic compound solubility result (combination of surfactin and fengycin (composition 10 of FIG. 2), compared with fengycin or surfactin alone) is given as “even higher”. For the same substance, under “mycosubtilin alone in aqueous solution, between 5 and 25 g/L (FIG. 1)”, the “appearance / solubility beyond the maximum concentration” value was “a precipitate that settles can be observed and only a small part remains soluble”. For the same substance, the “maximum concentration at which mycosubtilin solubilizes” value (mycosubtilin alone in aqueous solution, room temperature, no surfactant (FIG. 1)) is 2 g/L. The “maximum solubility of mycosubtilin” value (non-ionic Simulsol and anionic Protéol, 10% each (composition 3 of FIG. 2), 15 days at room temperature) was determined as 15.3 mg/mL; the “maximum solubility of mycosubtilin” value (non-ionic compound Emulsogen (0.2%) (composition 6 of FIG. 2), 15 days at room temperature) is 11.6 mg/mL; the “maximum solubility of mycosubtilin” value (soy lecithin (4%) coupled with Xanthan gum (0.1%) (composition 4 of FIG. 2), 15 days at room temperature) amounted to 1.5 mg/mL. In addition, the “maximum solubility of the iturinic compound” value (surfactin (4%) and non-ionic surfactant Emulsogen (0.2%) (composition 13 of FIG. 2), 15 days at room temperature) was determined as 112 mg/mL.
